Entries after “also recorded” stand apart in the source; their conditions may differ.
Tested on: patients with advanced solid tumors
Test: Phase I safety and tolerability
Type: in vivo, human
[1] = Cohort 3 (N=3), 40 mg BID 10 days + carboplatin
[2] = Cohort 3: 40 mg BID days 4–13 (10 days) + carboplatin AUC5, 3 patients
[3] = Cohort 4 (N=3), 40 mg BID 7 days + carboplatin
[4] = Cohort 4: 40 mg BID days 4–10 (7 days) + carboplatin AUC5, 3 patients
[5] = Cohort 5 (N=8), 60 mg QD 7 days + carboplatin

## C[C@@H]1COCCN1c1cc(C2([S@](C)(=N)=O)CC2)nc(-c2cc[nH]c3nccc2-3)n1 [ceralasertib]
[1]
  TEAE Anemia, Grade ≥3: 0 patients, n (%)
  TEAE Any AE, Grade 1–2: 1 (33) patients, n (%)
  TEAE Any AE, Grade ≥3: 2 (67) patients, n (%)
  TEAE Arthralgia, Grade 1–2: 0 patients, n (%)
  TEAE Arthralgia, Grade ≥3: 0 patients, n (%)
  TEAE Aspartate aminotransferase increased, Grade 1–2: 0 patients, n (%)
  TEAE Aspartate aminotransferase increased, Grade ≥3: 0 patients, n (%)
  TEAE Constipation, Grade 1–2: 1 (33) patients, n (%)
  TEAE Constipation, Grade ≥3: 0 patients, n (%)
  TEAE Contusion, Grade 1–2: 2 (67) patients, n (%)
  TEAE Contusion, Grade ≥3: 0 patients, n (%)
  TEAE Cough, Grade 1–2: 0 patients, n (%)
  TEAE Cough, Grade ≥3: 0 patients, n (%)
  TEAE Decreased appetite, Grade 1–2: 1 (33) patients, n (%)
  TEAE Decreased appetite, Grade ≥3: 0 patients, n (%)
  TEAE Diarrhea, Grade 1–2: 0 patients, n (%)
  TEAE Diarrhea, Grade ≥3: 0 patients, n (%)
  TEAE Dizziness, Grade 1–2: 0 patients, n (%)
  TEAE Dizziness, Grade ≥3: 0 patients, n (%)
  TEAE Dyspnea, Grade 1–2: 0 patients, n (%)
  TEAE Dyspnea, Grade ≥3: 0 patients, n (%)
  TEAE Fatigue, Grade 1–2: 1 (33) patients, n (%)
  TEAE Fatigue, Grade ≥3: 0 patients, n (%)
  TEAE Hypocalcemia, Grade 1–2: 0 patients, n (%)
  TEAE Hypocalcemia, Grade ≥3: 0 patients, n (%)
  TEAE Insomnia, Grade 1–2: 1 (33) patients, n (%)
  TEAE Insomnia, Grade ≥3: 0 patients, n (%)
  TEAE Lower respiratory tract infection, Grade 1–2: 0 patients, n (%)
  TEAE Lower respiratory tract infection, Grade ≥3: 0 patients, n (%)
  TEAE Nausea, Grade 1–2: 0 patients, n (%)
  TEAE Nausea, Grade ≥3: 0 patients, n (%)
  TEAE Neutropenia, Grade 1–2: 1 (33) patients, n (%)
  TEAE Neutropenia, Grade ≥3: 2 (67) patients, n (%)
  TEAE Neutrophil count decreased, Grade 1–2: 0 patients, n (%)
  TEAE Neutrophil count decreased, Grade ≥3: 0 patients, n (%)
  TEAE Platelet count decreased, Grade 1–2: 1 (33) patients, n (%)
  TEAE Platelet count decreased, Grade ≥3: 0 patients, n (%)
  TEAE Pyrexia, Grade 1–2: 0 patients, n (%)
  TEAE Pyrexia, Grade ≥3: 0 patients, n (%)
  TEAE Thrombocytopenia, Grade 1–2: 1 (33) patients, n (%)
  TEAE Thrombocytopenia, Grade ≥3: 2 (67) patients, n (%)
  TEAE Upper respiratory tract infection, Grade 1–2: 0 patients, n (%)
  TEAE Upper respiratory tract infection, Grade ≥3: 0 patients, n (%)
  TEAE Vomiting, Grade 1–2: 0 patients, n (%)
  TEAE Vomiting, Grade ≥3: 0 patients, n (%)
  TEAE White blood cell count decreased, Grade 1–2: 0 patients, n (%)
  TEAE White blood cell count decreased, Grade ≥3: 0 patients, n (%)
[2]
  Number of DLTs: no DLTs
  SRC decision (tolerability): declared intolerable; also recorded: Not tolerated
[3]
  TEAE Abdominal pain, Grade 1–2: 1 (33) patients, n (%)
  TEAE Abdominal pain, Grade ≥3: 0 patients, n (%)
  TEAE Alanine aminotransferase increased, Grade 1–2: 1 (33) patients, n (%)
  TEAE Alanine aminotransferase increased, Grade ≥3: 0 patients, n (%)
  TEAE Anemia, Grade 1–2: 1 (33) patients, n (%)
  TEAE Anemia, Grade ≥3: 1 (33) patients, n (%)
  TEAE Any AE, Grade 1–2: 0 patients, n (%)
  TEAE Any AE, Grade ≥3: 3 (100) patients, n (%)
  TEAE Arthralgia, Grade 1–2: 0 patients, n (%)
  TEAE Arthralgia, Grade ≥3: 0 patients, n (%)
  TEAE Aspartate aminotransferase increased, Grade 1–2: 0 patients, n (%)
  TEAE Aspartate aminotransferase increased, Grade ≥3: 0 patients, n (%)
  TEAE Constipation, Grade 1–2: 1 (33) patients, n (%)
  TEAE Constipation, Grade ≥3: 0 patients, n (%)
  TEAE Contusion, Grade 1–2: 0 patients, n (%)
  TEAE Contusion, Grade ≥3: 0 patients, n (%)
  TEAE Cough, Grade 1–2: 0 patients, n (%)
  TEAE Cough, Grade ≥3: 0 patients, n (%)
  TEAE Decreased appetite, Grade 1–2: 1 (33) patients, n (%)
  TEAE Decreased appetite, Grade ≥3: 0 patients, n (%)
  TEAE Diarrhea, Grade 1–2: 0 patients, n (%)
  TEAE Diarrhea, Grade ≥3: 0 patients, n (%)
  TEAE Dizziness, Grade 1–2: 1 (33) patients, n (%)
  TEAE Dizziness, Grade ≥3: 0 patients, n (%)
  TEAE Dyspnea, Grade 1–2: 0 patients, n (%)
  TEAE Dyspnea, Grade ≥3: 0 patients, n (%)
  TEAE Fatigue, Grade 1–2: 1 (33) patients, n (%)
  TEAE Fatigue, Grade ≥3: 0 patients, n (%)
  TEAE Hypocalcemia, Grade 1–2: 0 patients, n (%)
  TEAE Hypocalcemia, Grade ≥3: 0 patients, n (%)
  TEAE Insomnia, Grade 1–2: 0 patients, n (%)
  TEAE Insomnia, Grade ≥3: 0 patients, n (%)
  TEAE Lower respiratory tract infection, Grade 1–2: 0 patients, n (%)
  TEAE Lower respiratory tract infection, Grade ≥3: 0 patients, n (%)
  TEAE Nausea, Grade 1–2: 2 (67) patients, n (%)
  TEAE Nausea, Grade ≥3: 0 patients, n (%)
  TEAE Neutropenia, Grade 1–2: 1 (33) patients, n (%)
  TEAE Neutropenia, Grade ≥3: 1 (33) patients, n (%)
  TEAE Neutrophil count decreased, Grade 1–2: 0 patients, n (%)
  TEAE Neutrophil count decreased, Grade ≥3: 1 (33) patients, n (%)
  TEAE Platelet count decreased, Grade 1–2: 0 patients, n (%)
  TEAE Platelet count decreased, Grade ≥3: 0 patients, n (%)
  TEAE Pyrexia, Grade 1–2: 1 (33) patients, n (%)
  TEAE Pyrexia, Grade ≥3: 0 patients, n (%)
  TEAE Thrombocytopenia, Grade 1–2: 0 patients, n (%)
  TEAE Thrombocytopenia, Grade ≥3: 3 (100) patients, n (%)
  TEAE Upper respiratory tract infection, Grade 1–2: 0 patients, n (%)
  TEAE Upper respiratory tract infection, Grade ≥3: 0 patients, n (%)
  TEAE Vomiting, Grade 1–2: 0 patients, n (%)
  TEAE Vomiting, Grade ≥3: 0 patients, n (%)
  TEAE White blood cell count decreased, Grade 1–2: 0 patients, n (%)
  TEAE White blood cell count decreased, Grade ≥3: 1 (33) patients, n (%)
[4]
  Number of DLTs: a DLT of grade 4 thrombocytopenia and grade 3 neutropenia
  SRC decision (tolerability): declared intolerable; also recorded: Not tolerated
[5]
  TEAE Abdominal pain, Grade 1–2: 1 (13) patients, n (%)
  TEAE Abdominal pain, Grade ≥3: 0 patients, n (%)
  TEAE Alanine aminotransferase increased, Grade 1–2: 0 patients, n (%)
  TEAE Alanine aminotransferase increased, Grade ≥3: 1 (13) patients, n (%)
  TEAE Anemia, Grade 1–2: 3 (38) patients, n (%)
  TEAE Anemia, Grade ≥3: 3 (38) patients, n (%)
  TEAE Any AE, Grade 1–2: 4 (50) patients, n (%)
  TEAE Any AE, Grade ≥3: 4 (50) patients, n (%)

— publication PMC9401487 (Clinical Cancer Research, 2021)
